Experimental data as given in patent US9872495B2, “Peptoid oligomers, pharmaceutical compositions and methods of using the same” (priority 2009, dated 2018).
≈ marks a conversion by molar mass, not a printed value. Where two headings read alike, the source gives them in different places. Numbered stars: 1 amine (or outer) side, 2 acyl side, 3 side chain; on linkers, the order of the positions; unused ones are H or OH. Square brackets hold non-standard residues; d marks the D form. Peptide text beside a SMILES is read from it. X1 = O=C(CN(CC(c1ccccc1)c1ccccc1)[*:1])[*:2]; Gly(N-(CH2)6NH2) = NCCCCCCNCC(=O)O; Gly(N(CH2)3NH2) = NCCCNCC(=O)O; NhArg = N=C(N)NCCCCNCC(=O)O; N(iPr)Gly = CC(C)NCC(=O)O; Nphe = O=C(O)CNCc1ccccc1; Nleu = CC(C)CNCC(=O)O; Nlys = NCCCCNCC(=O)O

What was measured:
Assay type in all cases: cell-based
[1] = test system: Bacillus subtilis ATCC 6633
Protocol: (§1) Antimicrobial activity was tested against the gram-negative strain Escherichia coli ATCC 25922, and […] strains Staphylococcus aureus ATCC 25923, and Bacillus subtilis ATCC 6633, according to the guidelines given in the document […]-A7 of the CLSI (Clinical and Laboratory Standards Institute; Clinical and Laboratory Standards Institute. Methods for Dilution Antimicrobial Susceptibility Tests for Bacteria That Grow Aerobically-Seventh Edition: Approved Standard CLSI document […]-A7. CLSI, Wayne, USA, 2006). This reference is incorporated herein in its entirety. Hemolytic activity was tested against fresh human erythrocytes.

[2] = test system: Escherichia coli ATCC 25922
Protocol: as §1

[3] = test system: Staphylococcus aureus ATCC 25923
Protocol: as §1

fresh human erythrocytes = assay: Hemolytic activity
Protocol: Typically, toxicity is evaluated by hemolytic concentration50 (HC50), which measures the concentration of antimicrobial agents at which 50% of the erythrocytes in the culture are lysed. Significant hemolysis, as evaluated by HC50, was detectable only for peptide gramicidin S (40 μg/mL). […] In order to test hemolytic activity of peptoid oligomers further, more stringent parameters were used. Instead of HC50, hemolytic concentration10 (HC10) was used to evaluate hemolytic activity of peptoids used in this study. HC10 represents the concentration of antimicrobial agents where 10% of erythrocytes are lysed. HC10 values were detectable for only four peptoid oligomers. […] Antimicrobial activity was tested against the gram-negative strain Escherichia coli ATCC 25922, and […] strains Staphylococcus aureus ATCC 25923, and Bacillus subtilis ATCC 6633, according to the guidelines given in the document […]-A7 of the CLSI (Clinical and Laboratory Standards Institute; Clinical and Laboratory Standards Institute. Methods for Dilution Antimicrobial Susceptibility Tests for Bacteria That Grow Aerobically-Seventh Edition: Approved Standard CLSI document […]-A7. CLSI, Wayne, USA, 2006). This reference is incorporated herein in its entirety. Hemolytic activity was tested against fresh human erythrocytes.

Row | SMILES | MIC B. sub ([1]; ATCC 6633) [µg/mL] | MIC E. coli ([2]; ATCC 25922) [µg/mL] | MIC S. aureus ([3]; ATCC 25923) [µg/mL] | HC10 (concentration where 10% hemolysis is observed) (fresh human erythrocytes; red cells of human) [µg/mL] | HC50 (concentration where 50% hemolysis is observed) (fresh human erythrocytes; red cells of human) [µg/mL] | MIC B. sub ([1]; B. subtilis ATCC 6633) [µg/mL] | MIC E. coli ([2]; E. coli ATCC 25922) [µg/mL] | MIC S. aureus ([3]; S. aureus ATCC 25923) [µg/mL] | HC10 (concentration where 10% hemolysis is observed) (fresh human erythrocytes; fresh human erythrocytes) [µg/mL] | HC50 (concentration where 50% hemolysis is observed) (fresh human erythrocytes; fresh human erythrocytes) [µg/mL]
1 | CC(=O)N(CCCN)CC(=O)N(CC(=O)N(CCCN)CC(=O)N(CC(=O)N(CCCN)CC(=O)N(CC(=O)N(CCCN)CC(=O)N(CC(N)=O)Cc1ccccc1)Cc1ccccc1)Cc1ccccc1)Cc1ccccc1 [Compound 8, Ac(NapNpm)4] (Ac-[Gly(N(CH2)3NH2)][Nphe][Gly(N(CH2)3NH2)][Nphe][Gly(N(CH2)3NH2)][Nphe][Gly(N(CH2)3NH2)][Nphe]-NH2) | 31.3 (≈ 28.3 µM) | 250 (≈ 226 µM) | 250 (≈ 226 µM) | >250 | >250 |  |  |  |  | 
2 | CC(=O)N(CCCN)CC(=O)N(CC(=O)N(CCCN)CC(=O)N(CC(=O)N(CCCN)CC(=O)N(CC(N)=O)Cc1ccccc1)Cc1ccccc1)Cc1ccccc1 [Compound 7, Ac(NapNpm)3] (Ac-[Gly(N(CH2)3NH2)][Nphe][Gly(N(CH2)3NH2)][Nphe][Gly(N(CH2)3NH2)][Nphe]-NH2) | 125 (≈ 148 µM) | 125 (≈ 148 µM) | 250 (≈ 297 µM) | >250 | >250 |  |  |  |  | 
3 | CC(=O)N(CCCN)CC(=O)N(CC(=O)N(CCCN)CC(=O)N(CC(=O)N(CCCN)CC(=O)N(CC(N)=O)Cc1ccc2ccccc2c1)Cc1ccc2ccccc2c1)Cc1ccc2ccccc2c1 [Compound 5, Ac(NapNnm)3] | 2 (≈ 2.01 µM) | 62.5 (≈ 62.9 µM) | 125 (≈ 126 µM) | >250 | >250 |  |  |  |  | 
4 | CC(=O)N(CC(=O)N(CC(=O)N(CCCN)CC(=O)N(CC(=O)N1CCCC1C(=O)N(CC(=O)N(CC(=O)N(CCCN)CC(=O)N(CC(=O)N1CCCC1C(N)=O)C(C)C)CC(C)C)Cc1ccccc1)C(C)C)CC(C)C)Cc1ccccc1 (centres unmarked) [Compound 13, Ac(NpmNibNapNipPro)2] (Ac-[Nphe][Nleu][Gly(N(CH2)3NH2)][N(iPr)Gly]P[Nphe][Nleu][Gly(N(CH2)3NH2)][N(iPr)Gly]P-NH2; configuration not given here) | >500 | >500 | >500 | >250 | >250 |  |  |  |  | 
5 | CC(=O)N(CC(=O)N(CC(=O)N(CCCCNC(=N)N)CC(=O)N(CC(=O)N1CCC[C@H]1C(=O)N(CC(=O)N(CC(=O)N(CCCCNC(=N)N)CC(=O)N(CC(=O)N1CCC[C@H]1C(N)=O)C(C)C)CC(C)C)CC(c1ccccc1)c1ccccc1)C(C)C)CC(C)C)CC(c1ccccc1)c1ccccc1 [Compound 12, Ac(NdpNibNgbNipPro)2] (Ac-[X1][Nleu][NhArg][N(iPr)Gly]P[X1][Nleu][NhArg][N(iPr)Gly]P-NH2) | 500 (≈ 335 µM) | 250 (≈ 167 µM) | 500 (≈ 335 µM) | >250 | >250 |  |  |  |  | 
6 | CC(=O)N(CCCN)CC(=O)N(CC(=O)N(CCCN)CC(=O)N(CC(=O)N(CCCN)CC(=O)N(CCCN)CC(N)=O)Cc1ccccc1)Cc1ccccc1 [Compound 6, Ac(NapNpm)2Nap2] (Ac-[Gly(N(CH2)3NH2)][Nphe][Gly(N(CH2)3NH2)][Nphe][Gly(N(CH2)3NH2)][Gly(N(CH2)3NH2)]-NH2) | >500 | >500 | >500 | >250 | >250 |  |  |  |  | 
7 | CC(=O)N(CC(=O)N(CCCCNC(=N)N)CC(=O)N(CC(=O)N(CCCCNC(=N)N)CC(=O)N(CC(=O)N(CC(N)=O)CC(c1ccccc1)c1ccccc1)CC(c1ccccc1)c1ccccc1)CC(c1ccccc1)c1ccccc1)CC(c1ccccc1)c1ccccc1 [Compound 16, Ac(NdpNgb)2Ndp2] |  |  |  |  |  | >500 | >500 | 62.5 (≈ 46.3 µM) | 250 | >250
8 | CC(C)CN1CC(=O)N(CCCN)CC(=O)N(C(C)C)CC(=O)N2CCC[C@H]2C(=O)N(Cc2ccccc2)CC(=O)N(CC(C)C)CC(=O)N(CCCN)CC(=O)N(C(C)C)CC(=O)N2CCC[C@H]2C(=O)N(Cc2ccccc2)CC1=O [Compound 29, C(NpmNibNapNipPro)2] (cyclo([Nleu][Gly(N(CH2)3NH2)][N(iPr)Gly]P[Nphe][Nleu][Gly(N(CH2)3NH2)][N(iPr)Gly]P[Nphe])) |  |  |  | >250 | >250 |  |  |  |  | 

More lines, main results first:

Row | MIC B. sub ([1]; ATCC 6633) [µg/mL] | MIC E. coli ([2]; ATCC 25922) [µg/mL] | MIC S. aureus ([3]; ATCC 25923) [µg/mL] | SMILES | HC10 (concentration where 10% hemolysis is observed) (fresh human erythrocytes; red cells of human) [µg/mL] | HC50 (concentration where 50% hemolysis is observed) (fresh human erythrocytes; red cells of human) [µg/mL] | MIC B. sub ([1]; B. subtilis ATCC 6633) [µg/mL] | MIC E. coli ([2]; E. coli ATCC 25922) [µg/mL] | MIC S. aureus ([3]; S. aureus ATCC 25923) [µg/mL] | HC10 (concentration where 10% hemolysis is observed) (fresh human erythrocytes; fresh human erythrocytes) [µg/mL] | HC50 (concentration where 50% hemolysis is observed) (fresh human erythrocytes; fresh human erythrocytes) [µg/mL]
9 | 500 (≈ 549 µM) | 500 (≈ 549 µM) | >500 | NCCCCCCN1CC(=O)N(Cc2ccccc2)CC(=O)N(CCCCCCN)CC(=O)N(Cc2ccccc2)CC(=O)N(CCCCCCN)CC(=O)N(Cc2ccccc2)CC1=O [Compound 19, C(NahNpm)3] (cyclo([Nphe][Gly(N-(CH2)6NH2)][Nphe][Gly(N-(CH2)6NH2)][Nphe][Gly(N-(CH2)6NH2)])) | >250 | >250 |  |  |  |  | 
10 | 250 (≈ 123 µM) | 250 (≈ 123 µM) | 250 (≈ 123 µM) | N=C(N)NCCCCN1CC(=O)N(CC(c2ccccc2)c2ccccc2)CC(=O)N(CCCCNC(=N)N)CC(=O)N(CC(c2ccccc2)c2ccccc2)CC(=O)N(CCCCNC(=N)N)CC(=O)N(CC(c2ccccc2)c2ccccc2)CC(=O)N(CCCCNC(=N)N)CC(=O)N(CC(c2ccccc2)c2ccccc2)CC(=O)N(CCCCNC(=N)N)CC(=O)N(CC(c2ccccc2)c2ccccc2)CC1=O [Compound 31, C(NgbNdp)5] | >62.5 | >250 |  |  |  |  | 
11 | >500 | >500 | >500 | CC(=O)N(CCCCN)CC(=O)N(CC(=O)N(CCCCN)CC(=O)N(CC(=O)N(CCCCN)CC(=O)N(CC(N)=O)Cc1ccccc1)Cc1ccccc1)Cc1ccccc1 [Compound 14, Ac(NabNpm)3] (Ac-[Nlys][Nphe][Nlys][Nphe][Nlys][Nphe]-NH2) | >250 | >250 |  |  |  |  | 
12 | 1 (≈ 0.948 µM) | 15.6 (≈ 14.8 µM) | 7.8 (≈ 7.4 µM) | NCCCN1CC(=O)N(CC(c2ccccc2)c2ccccc2)CC(=O)N(CCCN)CC(=O)N(CC(c2ccccc2)c2ccccc2)CC(=O)N(CCCN)CC(=O)N(CC(c2ccccc2)c2ccccc2)CC1=O [Compound 20, C(NapNdp)3] | >31.3 | >250 |  |  |  |  | 
13 | 0.5 (≈ 0.535 µM) | 31.3 (≈ 33.5 µM) | 31.3 (≈ 33.5 µM) | NCCCN1CC(=O)N(Cc2ccc3ccccc3c2)CC(=O)N(CCCN)CC(=O)N(Cc2ccc3ccccc3c2)CC(=O)N(CCCN)CC(=O)N(Cc2ccc3ccccc3c2)CC1=O [Compound 21, C(NapNnm)3] | >250 | >250 |  |  |  |  | 
14 | 125 (≈ 131 µM) | 250 (≈ 263 µM) | 250 (≈ 263 µM) | N=C(N)NCCCCN1CC(=O)N(Cc2ccccc2)CC(=O)N(CCCCNC(=N)N)CC(=O)N(Cc2ccccc2)CC(=O)N(CCCCNC(=N)N)CC(=O)N(Cc2ccccc2)CC1=O [Compound 18, C(NgbNpm)3] (cyclo([Nphe][NhArg][Nphe][NhArg][Nphe][NhArg])) | >250 | >250 |  |  |  |  | 
15 | 500 (≈ 638 µM) | >500 | 500 (≈ 638 µM) | NCCCN1CC(=O)N(Cc2ccccc2)CC(=O)N(CCCN)CC(=O)N(Cc2ccccc2)CC(=O)N(CCCN)CC(=O)N(Cc2ccccc2)CC1=O [Compound 23, C(NapNpm)3] (cyclo([Nphe][Gly(N(CH2)3NH2)][Nphe][Gly(N(CH2)3NH2)][Nphe][Gly(N(CH2)3NH2)])) | >250 | >250 |  |  |  |  | 
16 | 250 (≈ 303 µM) | 250 (≈ 303 µM) | 500 (≈ 605 µM) | NCCCCN1CC(=O)N(Cc2ccccc2)CC(=O)N(CCCCN)CC(=O)N(Cc2ccccc2)CC(=O)N(CCCCN)CC(=O)N(Cc2ccccc2)CC1=O [Compound 30, C(NabNpm)3] (cyclo([Nlys][Nphe][Nlys][Nphe][Nlys][Nphe])) | >250 | >250 |  |  |  |  | 
